18 compounds from US20230077155A1, “TETRAHYDROISOQUINOLINE COMPOUND AS POTASSIUM CHANNEL MODULATOR AND PREPARATION AND APPLICATION THEREOF” (Shanghai Zhimeng Biopharma, Inc., priority 2020, published 2023) can be followed below.

Structures are written as SMILES.

The target of data set [1] is T1, KCNQ2 potassium channel (CHO-KCNQ2 cells) (Homo sapiens, UniProt O43526).
T1 construct: expressed in transfected cells; host or cells: CHO cells stably expressing KCNQ2, kept under G418 selection
The data set can be described thus: Potassium ion channel opener activity test (FDSS/μCELL detection, FluxOR thallium flux). The format is cell-based. As to conditions: for Maximum agonist rate (%): highest test concentration 100 μM. As to the method:
Potassium Ion Channel Opener Activity Test (FDSS/μCELL Detection)
1.1 Experimental procedure
Cell preparation: CHO-KCNQ2 cells were cultured in a 175 cm^2 culture flask, and when the cell density grew to 60-80%, the culture medium was removed, washed with 7 mL PBS (Phosphate Buffered Saline) once, then 3 mL 0.25% Trypsin was added to digest. After the digestion was completed, 7 mL culture medium (90% DMEM/F12+10% FBS±500 μg/mL G418) was added to neutralize, centrifugated for 3 minutes at 800 rpm. The supernatant was aspirated, then 5 mL culture medium was added to resuspend, and then the cells were counted.
Cell plating: according to the results of cell counting, the density was adjusted to 3×10^4 cells/well. After standing at room temperature for 30 minutes, the plate was placed in a 37° C. CO2 incubator and incubated overnight for 16-18 hours. The cell density reached about 80%.
Fluorescent dye incubation: the cell culture medium was discarded, 80 μL/well loading buffer was added, and incubated in the dark at room temperature for 60 minutes. Compound incubation: the loading buffer was discarded, 80 μL/well prepared compound solution was added, and incubated in the dark at room temperature for 20 minutes.
Fluorescence data collection: FDSS/μCELL instrument was used for real-time fluorescence signal recording with excitation wavelength at 480 nm and emission wavelength at 540 nm, recorded 1 time per second, and 20 μL/well stimulation buffer was started to add after recording for 10 seconds for baseline, and then continued to record until the end of 180 seconds.
The above buffer come from a commercially available kit named FluxOR potassium ion channel assay.
20 mM DMSO compound mother liquor was prepared, 10 μL of 20 mM compound mother liquor was took into 20 μL DMSO solution, serially diluted 3 times to 8 intermediate concentrations; then the intermediate concentrations of the compound was took out and added to the test buffer, diluted for 200 times to get the final concentration to be tested, 80 μL was took out and added to the test plate.
The highest test concentration was 100 μM, followed by […], 33.33, 11.11, 3.70, 1.23, 0.41, 0.137, 0.045 μM, total 8 concentrations. Each concentration set 3 duplicate wells.
This concentration of DMSO has no effect on the KCNQ2 potassium channel.
Experimental data was analyzed by Excel 2007 and GraphPad Prism 5.0 software, and the ratio of 180 seconds was calculated to calculate the agonism effect. The agonism effect of the compound was calculated by the following formula: […]
Reagent: FluxORTM Detection Kit (Invitrogen, Cat #F0017)
The experimental data in the report must meet the following criteria: Z′ Factor>0.5
2. Results: See Table 1, wherein the smaller the EC50 is, the higher the activity of the corresponding compound is.

Data set [2] in a line: Pharmacokinetics of mice, single intravenous and oral administration, plasma. As to conditions: male ICR mice; for F: gavage 10 mg/kg vs intravenous; for AUC(0-inf) / AUC(0-t) / Cmax / Tmax / half-life: mouse, plasma. It counts as in vivo. As for the experimental part:
Study on Pharmacokinetics of Mice
1) Research purposes: In order to obtain the pharmacokinetic characteristics and blood-brain barrier of the tested compound in male ICR mice
Six healthy male ICR mice (body weight range 18-22 g) were taken and divided into 2 groups and 3 mice/group. After fasting overnight (only oral administration group), […], blood was collected by jugular vein puncture at time points 0.083 (IV only), 0.25, 0.5, 1, 2, 4, 6 (PO only), 8 and 24 hours, and at least 0.3 mL of whole blood was collected to EDTA-K2 anticoagulant tube. Plasma was centrifuged (6000 rpm, 8 minutes, 4° C.) within half an hour and frozen at −20° C. for later use.
(§1) Experimental results: According to the blood drug concentration data obtained, the non-compartmental model of WinNonlin® 7.0 software (Pharsight, USA) was used to calculate the pharmacokinetic parameters after administration.

Data set [3] is described as follows: Brain-blood ratio study in mice after single oral administration. As to conditions: mouse, brain and plasma, male ICR mice, single oral 10 mg/kg, read-out: Cerebral blood ratio; for Kp at 2 h: time point 2 h; for Kp at 4 h: time point 4 h. The format is in vivo. As to the method: Brain-blood ratio study: 6 healthy male ICR mice (body weight range 18-22 g) were taken and divided into 2 groups and 3 mice/group. After fasting overnight, the compound to be tested (10 mg/kg) was administrated orally respectively. Blood was taken through cardiac puncture at time points 2 and 4 hours, at least 0.5 mL of whole blood was collected to EDTA-K2 anticoagulant tube. Plasma was centrifuged (6000 rpm, 8 minutes, 4° C.) within half an hour and frozen at −20° C. for later use. At the same time, the brain tissue was collected, rinsed with normal saline, then sucked to dryness with absorbent paper, weighed, and frozen at −20° C. for later use.
The cerebral blood ratio is very important to nerve drugs, and it can be seen from Table 3 that the compounds of the present invention have excellent cerebral blood ratio, which will bring better drug efficacy and excellent safety. By comparing the cerebral blood ratios of compound A, compound 1, compound B and compound J, it can be seen that after the tert-butyl of compound A or compound B has been changed into […]

The nature of data set [4]: Pharmacokinetics of rats, single intravenous and oral administration, plasma. It counts as in vivo. As to conditions: male SD rats; for AUC(0-inf) / AUC(0-t) / Cmax / Tmax / half-life: rat, plasma. As to the method: Study on Pharmacokinetics of Rats
1) Research purpose: To obtain the pharmacokinetic characteristics of the compounds to be tested in male SD rats.
Pharmacokinetic study: 6 healthy male SD rats (SPF grade) were divided into 2 groups and 3 rats/group. After fasting overnight (only oral administration group), compound A was administrated 0.3 mg/kg intravenously and 5 mg/kg orally, blood was collected by jugular vein puncture at time points 0.083 (IV only), 0.25, 0.5, 1, 2, 4, 6 (PO only), 8 and 24 hours, and at least 0.3 mL of whole blood was collected to EDTA-K2 anticoagulant tube. Plasma was centrifuged (6000 rmp, 8 minutes, 4° C.) within half an hour and frozen at −20° C. for later use.
as §1

Setting [5] is: intravenous 1 mg/kg (footnote *).

T1 sequence (O43526 whole entry): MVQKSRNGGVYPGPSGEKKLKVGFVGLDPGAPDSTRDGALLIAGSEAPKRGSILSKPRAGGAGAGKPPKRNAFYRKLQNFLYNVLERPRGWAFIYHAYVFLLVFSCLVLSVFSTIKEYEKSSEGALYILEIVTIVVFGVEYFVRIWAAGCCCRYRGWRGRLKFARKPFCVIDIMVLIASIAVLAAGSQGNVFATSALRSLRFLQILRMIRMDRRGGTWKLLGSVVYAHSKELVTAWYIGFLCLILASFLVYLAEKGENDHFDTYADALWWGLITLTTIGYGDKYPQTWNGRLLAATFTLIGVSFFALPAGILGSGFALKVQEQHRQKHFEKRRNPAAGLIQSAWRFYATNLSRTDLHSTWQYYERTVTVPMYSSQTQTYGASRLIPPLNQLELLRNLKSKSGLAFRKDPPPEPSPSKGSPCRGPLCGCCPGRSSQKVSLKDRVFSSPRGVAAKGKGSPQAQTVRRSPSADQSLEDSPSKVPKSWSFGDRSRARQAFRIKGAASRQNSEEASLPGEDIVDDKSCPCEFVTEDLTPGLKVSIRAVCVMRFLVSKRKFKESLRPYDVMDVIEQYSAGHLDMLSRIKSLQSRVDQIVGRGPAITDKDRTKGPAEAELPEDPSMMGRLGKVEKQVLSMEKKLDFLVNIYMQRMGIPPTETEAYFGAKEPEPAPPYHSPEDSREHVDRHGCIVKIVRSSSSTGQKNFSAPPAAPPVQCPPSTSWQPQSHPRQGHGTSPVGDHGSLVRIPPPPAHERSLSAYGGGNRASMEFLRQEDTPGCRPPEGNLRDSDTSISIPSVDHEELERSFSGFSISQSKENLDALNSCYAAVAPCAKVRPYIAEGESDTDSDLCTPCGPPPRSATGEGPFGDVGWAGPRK

`Cc1cc2c(c(C)c1NC(=O)CC1CC(F)(F)C1)CCN(c1ccc(F)cc1)C2` [Compound A5]: in data set [1], the concentration for a half-maximal effect (EC50) was found to be 49 nM and the “Maximum agonist rate (%)” value was 34.41%.
Taken in the same sequence, the figures for `Cc1cc2c(c(C)c1NC(=O)CC1(C)CC1)CCN(c1ccccc1)C2` [Compound V] were 340 nM and 45.76%.
Regarding `[2H]C1([2H])c2cc(C)c(NC(=O)CC3(C)CC3)c(C)c2CCN1c1ccc(C(F)(F)F)cc1` [Compound A3], in data set [1], the half-maximal effective concentration (EC50) was 210 nM and the “Maximum agonist rate (%)” value came to 36.16%.
Taken in the same sequence, the figures for `Cc1cc2c(c(C)c1NC(=O)CC1(C)CC1)CCN(c1ccc(Cl)cc1)C2` [Compound W] were 180 nM and 33.2%.
Turning to `Cc1cc2c(c(C)c1NC(=O)CC(C)(C)C)CCN(c1ccc(F)cc1)C2` [Compound A], the F in data set [2] is listed as 33.79%. In data set [2] (po, gavage 10 mg/kg), the AUC(0-inf) was found to be 793 ng·h/mL, the AUC(0-t) was found to be 792 ng·h/mL, the Cmax was 142 ng/mL and the time to peak (Tmax) was found to be 40.2 min. For the same compound, the half-life in data set [2] (po, gavage 10 mg/kg) is 2.61 h. Further, in data set [2] (intravenous 0.5 mg/kg), the AUC(0-inf) was 118 ng·h/mL, the AUC(0-t) amounted to 117 ng·h/mL, the concentration peaked (Cmax) at 270 ng/mL and the Tmax came out at 4.8 min. The same compound had a half-life in data set [2] (intravenous 0.5 mg/kg) of 0.99 h. In addition, in data set [3], the Kp at 2 h was found to be 2.3 and the Kp at 4 h worked out at 2.8. Also, in data set [1], it took 440 nM to reach a half-maximal effect (EC50) and the “Maximum agonist rate (%)” value is reported as 37.97%. In data set [4] (gavage 5 mg/kg vs intravenous 0.3 mg/kg), the F was determined as 38.93%. For the same compound, in data set [4] (po, gavage 5 mg/kg), the AUC(0-inf) was 1280 ng·h/mL, the AUC(0-t) worked out at 909 ng·h/mL, the Cmax is 154 ng/mL and the Tmax came to 90 min. Also, in data set [4] (po, gavage 5 mg/kg), the half-life was 184 min. For the same compound, in data set [4] (intravenous 0.3 mg/kg), the AUC(0-inf) amounted to 144 ng·h/mL, the exposure AUC(0-t) turned out to be 140 ng·h/mL, the highest concentration (Cmax) was found to be 332 ng/mL and the Tmax was determined as 4.8 min. The compound further showed a half-life in data set [4] (intravenous 0.3 mg/kg) of 59.4 min.
As to `Cc1cc2c(c(C)c1NC(=O)CC1(C)CC1)CCN(c1cccc(C(F)(F)F)c1)C2` [Compound A4], in data set [1], the concentration giving a half-maximal response (EC50) came out at 270 nM and the “Maximum agonist rate (%)” value turned out to be 48.11%.
As for `Cc1cc2c(c(C)c1NC(=O)CC1(C)CC1)CCN(c1ccc(C(F)(F)F)cc1)C2` [Compound P], the F in data set [2] came out at 83.77%. In addition, in data set [2] (po, gavage 10 mg/kg), the AUC(0-inf) is 30900 ng·h/mL, the exposure AUC(0-t) came out at 5990 ng·h/mL, the concentration peaked (Cmax) at 315 ng/mL and the Tmax amounted to 520 min. The compound also gave a half-life in data set [2] (po, gavage 10 mg/kg) of 84.3 h. In addition, in data set [2] (intravenous 0.5 mg/kg), the AUC(0-inf) was 383 ng·h/mL, the AUC(0-t) was 357 ng·h/mL, the peak concentration (Cmax) came to 382 ng/mL and the Tmax was determined as 4.8 min. Moreover, the half-life in data set [2] (intravenous 0.5 mg/kg) was 2.67 h. Also, in data set [3], the Kp at 2 h amounted to 6.4 and the Kp at 4 h amounted to 5.96. Moreover, in data set [1], the half-maximal effective concentration (EC50) was 34 nM and the “Maximum agonist rate (%)” value is 38.22%.
As to `Cc1cc2c(c(C)c1NC(=O)CC1(C)CC1)CCN(c1ccc(Br)cc1)C2` [Compound Y], in data set [1], the concentration for a half-maximal effect (EC50) came to 200 nM and the “Maximum agonist rate (%)” value is 37.96%.
The like results for `C#Cc1ccc(N2CCc3c(cc(C)c(NC(=O)CC(C)(C)C)c3C)C2)cc1` [Compound D] were, in that order, 450 nM and 29.51%.
The like results for `Cc1cc2c(c(C)c1NC(=O)CC1(C)CC1)CCN(c1ccc(I)cc1)C2` [Compound X] were, in that order, 72 nM and 28.94%.
For `Cc1cc2c(c(C)c1NC(=O)CC1(C)CC1)CCN(c1ccc(F)cc1F)C2` [Compound J], in data set [2], the F came to 19.18%. In data set [2] (po, gavage 10 mg/kg), the area under the curve AUC(0-inf) stood at 703 ng·h/mL, the AUC(0-t) turned out to be 693 ng·h/mL, the Cmax is 374 ng/mL and the time to peak (Tmax) was 15 min. In data set [2] (po, gavage 10 mg/kg), this compound gave a half-life of 1.81 h. In data set [2] (setting [5]), the AUC(0-inf) came out at 366 ng·h/mL, the exposure AUC(0-t) was found to be 361 ng·h/mL, the concentration peaked (Cmax) at 942 ng/mL and the time to peak (Tmax) is 4.8 min. Also, the half-life in data set [2] (setting [5]) is 0.88 h. Also, in data set [3], the Kp at 2 h came to 4.1 and the Kp at 4 h was found to be 3.2.
Take `Cc1cc2c(c(C)c1NC(=O)CC1(C)CC1)CCN(c1cccc(F)c1)C2` [Compound Z]: in data set [1], a half-maximal effect (EC50) was put at 94 nM and the “Maximum agonist rate (%)” value worked out at 48.65%.
The like results for `Cc1cc2c(c(C)c1NC(=O)CC1(C)CC1)CCN(c1ccc(C#N)cc1)C2` [Compound O] were, in that order, 780 nM and 29.43%.
Taken in the same sequence, the figures for `Cc1ccc(N2CCc3c(cc(C)c(NC(=O)CC(C)(C)C)c3C)C2)cc1` [Compound U] were 330 nM and 52.3%.
Regarding `Cc1cc2c(c(C)c1NC(=O)CC1(C)CC1)CCN(c1ccccc1F)C2` [Compound A1], in data set [1], the EC50 came to 730 nM and the “Maximum agonist rate (%)” value is 35.84%.
In the case of `Cc1cc2c(c(C)c1NC(=O)CC1(C(F)(F)F)CC1)CCN(c1ccc(F)cc1)C2` [Compound A6], in data set [1], the concentration for a half-maximal effect (EC50) is 290 nM and the “Maximum agonist rate (%)” value is 17.08%.
Taken in the same sequence, the figures for `Cc1cc2c(c(C)c1NC(=O)CCC1CC1)CCN(c1ccc(F)cc1)C2` [Compound A7] were 400 nM and 35.92%.
In the case of `Cc1cc2c(c(C)c1NC(=O)CC1(C)CC1)CCCN(c1ccc(F)cc1)C2` [Compound A2], in data set [1], the response was half-maximal at 130 nM (EC50) and the “Maximum agonist rate (%)” value was determined as 44.53%.

In general, EC50 refers to the concentration that produces a half-maximal response. Low readings indicate greater potency, high ones weaker potency. Broadly, the AUC(0-inf) is total exposure, with the tail of the curve extrapolated. A lower AUC(0-inf) goes with less exposure. Broadly, the AUC(0-t) is exposure summed from dosing to a finite time, without extrapolation to infinity. Read a high AUC(0-t) as more exposure. As a reminder, the Cmax is the maximum level reached in the sampled fluid or tissue. By Tmax is commonly meant the time at which the peak concentration occurs. As a reminder, the half-life is the time needed for the level to fall by half in the phase considered. Read a low half-life as rapid decline.
